Results reported in ChEMBL document CHEMBL1275467, “Spread of OXA-48-positive carbapenem-resistant Klebsiella pneumoniae isolates in Istanbul, Turkey” (2008).
Converted amounts (≈) assume the structure as drawn.

How the values were obtained:
Type in all cases: functional
[1] = system: Klebsiella pneumoniae; assay: Antimicrobial activity against Klebsiella pneumoniae isolate 11 expressing beta-lactamase Oxa-48, TEM-1 and Oxa-1 by Etest
[2] = system: Escherichia coli; assay: Antimicrobial activity against Escherichia coli J53 harboring beta-lactamase Oxa-48 by Etest
[3] = system: Escherichia coli; assay: Antimicrobial activity against Escherichia coli J53 harboring beta-lactamase TEM-1, CTX-M-15 and Oxa-1 by Etest
[4] = system: Escherichia coli; assay: Antimicrobial activity against Escherichia coli J53 by Etest
[5] = system: Klebsiella pneumoniae; assay: Antimicrobial activity against Klebsiella pneumoniae isolate 21 expressing beta-lactamase Oxa-48, TEM-1 and Oxa-9 by Etest
[6] = system: Klebsiella pneumoniae; assay: Antimicrobial activity against Klebsiella pneumoniae containing PFGE clone B expressing beta-lactamase Oxa-48, TEM-1, CTX-M-15 and Oxa-1 by Etest
[7] = system: Klebsiella pneumoniae; assay: Antimicrobial activity against Klebsiella pneumoniae containing PFGE clone A expressing beta-lactamase Oxa-48, TEM-1, SHV-12 and Oxa-9 by Etest
[8] = system: Escherichia coli; assay: Antimicrobial activity against Escherichia coli J53 harboring beta-lactamase TEM-1, SHV-12 and Oxa-9 by Etest
[9] = system: Klebsiella pneumoniae; assay: Antimicrobial activity against Klebsiella pneumoniae containing PFGE clone B expressing beta-lactamase Oxa-48, TEM-1, CTX-M-15 and Oxa-1 by Etest in presence of beta-lactamase inhibitor Tazobactam
[10] = system: Klebsiella pneumoniae; assay: Antimicrobial activity against Klebsiella pneumoniae containing PFGE clone A expressing beta-lactamase Oxa-48, TEM-1, SHV-12 and Oxa-9 by Etest in presence of beta-lactamase inhibitor Tazobactam
[11] = system: Escherichia coli; assay: Antimicrobial activity against Escherichia coli J53 by Etest in presence of beta-lactamase inhibitor Tazobactam
[12] = system: Escherichia coli; assay: Antimicrobial activity against Escherichia coli J53 harboring beta-lactamase Oxa-48 by Etest in presence of beta-lactamase inhibitor Tazobactam
[13] = system: Klebsiella pneumoniae; assay: Antimicrobial activity against Klebsiella pneumoniae isolate 11 expressing beta-lactamase Oxa-48, TEM-1 and Oxa-1 by Etest in presence of beta-lactamase inhibitor Tazobactam
[14] = system: Klebsiella pneumoniae; assay: Antimicrobial activity against Klebsiella pneumoniae isolate 21 expressing beta-lactamase Oxa-48, TEM-1 and Oxa-9 by Etest in presence of beta-lactamase inhibitor Tazobactam
[15] = system: Escherichia coli; assay: Antimicrobial activity against Escherichia coli J53 harboring beta-lactamase TEM-1, CTX-M-15 and Oxa-1 by Etest in presence of beta-lactamase inhibitor Tazobactam
[16] = system: Escherichia coli; assay: Antimicrobial activity against Escherichia coli J53 harboring beta-lactamase TEM-1, SHV-12 and Oxa-9 by Etest in presence of beta-lactamase inhibitor Tazobactam
[17] = system: Escherichia coli; assay: Antimicrobial activity against Escherichia coli J53 harboring beta-lactamase Oxa-48 by Etest in presence of beta-lactamase inhibitor clavulanic acid
[18] = system: Klebsiella pneumoniae; assay: Antimicrobial activity against Klebsiella pneumoniae containing PFGE clone B expressing beta-lactamase Oxa-48, TEM-1, CTX-M-15 and Oxa-1 by Etest in presence of beta-lactamase inhibitor clavulanic acid
[19] = system: Klebsiella pneumoniae; assay: Antimicrobial activity against Klebsiella pneumoniae containing PFGE clone A expressing beta-lactamase Oxa-48, TEM-1, SHV-12 and Oxa-9 by Etest in presence of beta-lactamase inhibitor clavulanic acid
[20] = system: Klebsiella pneumoniae; assay: Antimicrobial activity against Klebsiella pneumoniae isolate 11 expressing beta-lactamase Oxa-48, TEM-1 and Oxa-1 by Etest in presence of beta-lactamase inhibitor clavulanic acid
[21] = system: Klebsiella pneumoniae; assay: Antimicrobial activity against Klebsiella pneumoniae isolate 21 expressing beta-lactamase Oxa-48, TEM-1 and Oxa-9 by Etest in presence of beta-lactamase inhibitor clavulanic acid
[22] = system: Escherichia coli; assay: Antimicrobial activity against Escherichia coli J53 by Etest in presence of beta-lactamase inhibitor clavulanic acid
[23] = system: Escherichia coli; assay: Antimicrobial activity against Escherichia coli J53 harboring beta-lactamase TEM-1, SHV-12 and Oxa-9 by Etest in presence of beta-lactamase inhibitor clavulanic acid
[24] = system: Escherichia coli; assay: Antimicrobial activity against Escherichia coli J53 harboring beta-lactamase TEM-1, CTX-M-15 and Oxa-1 by Etest in presence of beta-lactamase inhibitor clavulanic acid

| Compound | MIC [1] | MIC [2] | MIC [3] | MIC [4] | MIC [5] | MIC [6] | MIC [7] | MIC [8] | further results |
| --- | --- | --- | --- | --- | --- | --- | --- | --- | --- |
| CO[C@@]1(NC(=O)Cc2cccs2)C(=O)N2C(C(=O)O)=C(COC(N)=O)CS[C@@H]21 [CEFOXITIN] | 16 µg/mL (≈ 37.4 µM) | 4 µg/mL (≈ 9.36 µM) | 2 µg/mL (≈ 4.68 µM) | 4 µg/mL (≈ 9.36 µM) | > 32 µg/mL | > 32 µg/mL | 16 µg/mL (≈ 37.4 µM) | 2 µg/mL (≈ 4.68 µM) | – |
| CCn1cc(C(=O)O)c(=O)c2cc(F)c(N3CCNCC3)cc21 [NORFLOXACIN] | – | – | – | – | – | > 256 µg/mL | 8 µg/mL (≈ 25.1 µM) | – | – |
| CCN1CCN(C(=O)N[C@@H](C(=O)N[C@@H]2C(=O)N3[C@@H]2SC(C)(C)[C@@H]3C(=O)O)c2ccccc2)C(=O)C1=O [PIPERACILLIN] | > 512 µg/mL | > 512 µg/mL | > 512 µg/mL | 4 µg/mL (≈ 7.73 µM) | > 512 µg/mL | > 512 µg/mL | > 512 µg/mL | > 512 µg/mL | MIC [9]: > 512 µg/mL; MIC [10]: > 512 µg/mL; MIC [11]: 4 µg/mL; MIC [12]: 64 µg/mL; MIC [13]: > 512 µg/mL; MIC [14]: > 512 µg/mL; MIC [15]: > 4 µg/mL; MIC [16]: > 4 µg/mL |
| CC(C)(O/N=C(\C(=O)N[C@@H]1C(=O)N2C(C(=O)[O-])=C(C[n+]3ccccc3)CS[C@H]12)c1csc(N)n1)C(=O)O [CEFTAZIDIME] | 2 µg/mL (≈ 3.66 µM) | 1 µg/mL (≈ 1.83 µM) | 128 µg/mL (≈ 234 µM) | 1 µg/mL (≈ 1.83 µM) | 2 µg/mL (≈ 3.66 µM) | > 512 µg/mL | > 512 µg/mL | 64 µg/mL (≈ 117 µM) | – |
| NC[C@H]1O[C@H](O[C@H]2[C@H](O)[C@@H](O[C@H]3O[C@H](CO)[C@@H](O)[C@H](N)[C@H]3O)[C@H](N)C[C@@H]2N)[C@H](N)C[C@@H]1O [TOBRAMYCIN] | – | – | – | – | – | > 64 µg/mL | > 64 µg/mL | – | – |
| C[C@H]1[C@H](NC(=O)/C(=N\OC(C)(C)C(=O)O)c2csc(N)n2)C(=O)N1S(=O)(=O)O [AZTREONAM] | 0.5 µg/mL (≈ 1.15 µM) | < 0.125 µg/mL | 8 µg/mL (≈ 18.4 µM) | 0.5 µg/mL (≈ 1.15 µM) | 0.5 µg/mL (≈ 1.15 µM) | – | – | 64 µg/mL (≈ 147 µM) | – |
| C[C@@H](O)[C@H]1C(=O)N2C(C(=O)O)=C(S[C@@H]3CN[C@H](C(=O)N(C)C)C3)[C@H](C)[C@H]12 [MEROPENEM] | – | 0.12 µg/mL (≈ 0.313 µM) | – | < 1 µg/mL | – | 6 µg/mL (≈ 15.6 µM) | > 32 µg/mL | – | – |
| GENTAMICIN | – | – | – | – | – | 1 µg/mL | > 64 µg/mL | – | – |
| NC[C@H]1O[C@H](O[C@H]2[C@H](O)[C@@H](O[C@H]3O[C@H](CO)[C@@H](O)[C@H](N)[C@H]3O)[C@H](N)C[C@@H]2N)[C@H](O)[C@@H](O)[C@@H]1O [KANAMYCIN] | – | – | – | – | – | 128 µg/mL (≈ 264 µM) | > 256 µg/mL | – | – |
| CC1(C)S[C@@H]2[C@H](NC(=O)[C@H](N)c3ccc(O)cc3)C(=O)N2[C@H]1C(=O)O [AMOXICILLIN] | > 512 µg/mL | > 512 µg/mL | > 512 µg/mL | 1 µg/mL (≈ 2.74 µM) | > 512 µg/mL | > 512 µg/mL | > 512 µg/mL | > 512 µg/mL | MIC [17]: > 512 µg/mL; MIC [18]: > 512 µg/mL; MIC [19]: > 512 µg/mL; MIC [20]: > 512 µg/mL; MIC [21]: > 512 µg/mL; MIC [22]: 1 µg/mL; MIC [23]: > 512 µg/mL; MIC [24]: > 513 µg/mL |
| C[C@@H](O)[C@H]1C(=O)N2C(C(=O)O)=C(S[C@@H]3CN[C@H](C(=O)Nc4cccc(C(=O)O)c4)C3)[C@H](C)[C@H]12 | > 32 µg/mL | 0.25 µg/mL (≈ 0.526 µM) | – | < 1 µg/mL | > 32 µg/mL | > 32 µg/mL | > 32 µg/mL | – | – |
| CN(C)[C@@H]1C(O)=C(C(N)=O)C(=O)[C@@]2(O)C(O)=C3C(=O)c4c(O)cccc4[C@@](C)(O)[C@H]3C[C@@H]12 [TETRACYCLINE] | – | – | – | – | – | > 256 µg/mL | > 256 µg/mL | – | – |
| CCN[C@@H]1C[C@H](N)[C@@H](O[C@H]2OC(CN)=CC[C@H]2N)[C@H](O)[C@H]1O[C@H]1OC[C@](C)(O)[C@H](NC)[C@H]1O [NETILMICIN] | – | – | – | – | – | 3 µg/mL (≈ 6.31 µM) | > 128 µg/mL | – | – |
| CO[C@@]1(NC(=O)C(C(=O)O)c2ccc(O)cc2)C(=O)N2C(C(=O)O)=C(CSc3nnnn3C)CO[C@@H]21 (some centres not stated) [MOXALACTAM] | – | 2 µg/mL (≈ 3.84 µM) | < 0.5 µg/mL | 1 µg/mL (≈ 1.92 µM) | – | > 16 µg/mL | > 16 µg/mL | < 0.5 µg/mL | – |
| CO/N=C(\C(=O)N[C@@H]1C(=O)N2C(C(=O)[O-])=C(C[N+]3(C)CCCC3)CS[C@H]12)c1csc(N)n1 | 4 µg/mL (≈ 8.32 µM) | < 0.5 µg/mL | 4 µg/mL (≈ 8.32 µM) | 0.125 µg/mL (≈ 0.26 µM) | 4 µg/mL (≈ 8.32 µM) | – | – | 0.5 µg/mL (≈ 1.04 µM) | – |
| CC1COc2c(N3CCN(C)CC3)c(F)cc3c(=O)c(C(=O)O)cn1c23 (configuration not stated) [OFLOXACIN] | – | – | – | – | – | > 64 µg/mL | 2 µg/mL (≈ 5.53 µM) | – | – |
| C[C@@H](O)[C@H]1C(=O)N2C(C(=O)O)=C(SCCNC=N)C[C@H]12 [IMIPENEM ANHYDROUS] | 8 µg/mL (≈ 26.7 µM) | 0.5 µg/mL (≈ 1.67 µM) | < 1 µg/mL | – | 8 µg/mL (≈ 26.7 µM) | 4 µg/mL (≈ 13.4 µM) | 4 µg/mL (≈ 13.4 µM) | < 1 µg/mL | – |
| NCC[C@H](O)C(=O)N[C@@H]1C[C@H](N)[C@@H](O[C@H]2O[C@H](CN)[C@@H](O)[C@H](O)[C@H]2O)[C@H](O)[C@H]1O[C@H]1O[C@H](CO)[C@@H](O)[C@H](N)[C@H]1O [AMIKACIN] | – | – | – | – | – | 2 µg/mL (≈ 3.42 µM) | 16 µg/mL (≈ 27.3 µM) | – | – |
| CO/N=C(\C(=O)N[C@@H]1C(=O)N2C(C(=O)O)=C(COC(C)=O)CS[C@H]12)c1csc(N)n1 [CEFOTAXIME] | 4 µg/mL (≈ 8.78 µM) | 0.5 µg/mL (≈ 1.1 µM) | > 32 µg/mL | 0.5 µg/mL (≈ 1.1 µM) | 4 µg/mL (≈ 8.78 µM) | > 512 µg/mL | > 512 µg/mL | 4 µg/mL (≈ 8.78 µM) | – |
| COc1cc(Cc2cnc(N)nc2N)cc(OC)c1OC [TRIMETHOPRIM] | – | – | – | – | – | > 32 µg/mL | > 32 µg/mL | – | – |
| CC1(C)S[C@@H]2[C@H](NC(=O)[C@H](C(=O)O)c3ccsc3)C(=O)N2[C@H]1C(=O)O [TICARCILLIN] | > 512 µg/mL | > 512 µg/mL | > 514 µg/mL | 4 µg/mL (≈ 10.4 µM) | > 512 µg/mL | > 512 µg/mL | > 512 µg/mL | > 512 µg/mL | MIC [17]: > 512 µg/mL; MIC [18]: > 512 µg/mL; MIC [19]: > 512 µg/mL; MIC [20]: > 512 µg/mL; MIC [21]: > 512 µg/mL; MIC [22]: 4 µg/mL; MIC [23]: > 512 µg/mL; MIC [24]: > 512 µg/mL |
| CCn1cc(C(=O)O)c(=O)c2ccc(C)nc21 [NALIDIXIC ACID] | – | – | – | – | – | > 64 µg/mL | > 64 µg/mL | – | – |
